Measured values: patent US9828576B2, “Cell culture” (National University of Singapore, priority 2012, dated 2017)
Entries after “also recorded” stand apart in the source; their conditions may differ.

Tested on: bile canaliculi of hepatocyte couplets
Experiment: Bile canaliculi (BC) morphology of hepatocyte couplets in F/F microwells after drug treatment (F-actin staining, confocal imaging)
Assay type: cell-based, rat
Settings: for degree of folding r of BC / vertical aspect ratio i of BC: F/F microwells with drug, compared with control F/F microwells (FIG. 6D); for BC morphology: hepatocytes in F/F microwells
Method: For control, hepatocytes cultured for 48 hours in microwells were fixed in 4% para-formaldehyde (PFA) for 30 minutes. For ±Blebbistatin (Merck, 203390) or Y27632 (Sigma, Y0503) treatments, drugs were added 4 h before fixation, while soluble RGD (Sigma, G5646) was incubated with hepatocytes overnight. After fixation, the cells were rinsed by PBS and permeabilized for 30 min in TBST (0.2% Triton-X in TBS). The permeabilized cells were blocked with 1% BSA in TBST for 4 h and incubated overnight with pan-Cadherin antibody (sigma, C1821) and anti-ZO-1 antibody (life technology, 61-7300) at 4° C. as instructed in manuals. After rinsed with TBST, the cells were incubated in secondary antibodies (Life Technology, A10040 and A-31571) and phalloidin-alexa 488 (Life Technology, A12379) for 1 h in dark at room temperature. After rinsed with TBST again and incubated shortly with DAPI (Sigma, D9564), cells were mounted in mounting medium (DAKO, S3023). 3D stack of confocal microscopy images were acquired with 100×NA1.4 oil lens on a Nikon A1R Confocal Microscope.
The selected slices of image stacks were reconstructed as maximum intensity projection or orthogonal section view. Manual segmentation was applied based on F-actin signal, because F-actin provides a better definition of BC boundaries, compared with ZO-1 (FIG. 11). Several features, such as parameter, thickness, horizontal spin size and area of bile canaliculi, were extracted subsequently.
When cells adhered to the side of microwell only (F/P configuration), hepatocytes positioned side by side (FIG. 5C, 5D). […] To confirm the importance of cell-ECM adhesion in obtaining flat tubular BC, we treated the hepatocytes in F/F microwells on day 1 with soluble RGD peptides (250 μM, overnight) that antagonized the integrin-mediated cell-ECM adhesion while keeping the chemical signalling unperturbed. Indeed, as cells detached from the microwells, their BC rounded up to be morphologically equivalent to those observed in the P/F case (FIG. 6A).
Therefore, we tested whether actomyosin contractility was required for the differential control of BC morphology by the spatial organization of cell-ECM adhesion. […] The resulting morphologies were similar to those obtained in the P/F configuration (FIG. 6B, 6C).
The BC morphologies in different conditions were quantitatively assessed by two dimensionless parameters: the degree of folding and vertical aspect ratio. The degree of folding r=P^2/(4πA) was evaluated by measuring the ratio of the BC projected perimeter P to the projected area A. This morphological index r ranges from 1 (circle) upward (folded tubular structures). The vertical aspect ratio i was calculated as the ratio of the BC maximal height over maximal elongation in the XY plane. Higher vertical aspect ratio represents a thicker BC.

Compound | degree of folding r of BC | vertical aspect ratio i of BC | BC morphology (Y27632 10 μM for 4 hours) | BC morphology (blebbistatin 100 μM for 4 hours) | BC morphology (blebbistatin 100 μM for 4 hours, listed as blebbistatin +/−)
C[C@@H](N)[C@H]1CC[C@H](C(=O)Nc2ccncc2)CC1 [Y27632] | lower | higher | rounded up; also recorded: converted tubular BC into spherical ones |  | 
Cc1ccc2c(c1)C(=O)C1(O)CCN(c3ccccc3)C1=N2 (stereo not shown) [blebbistatin] | lower | higher |  | rounded up | converted tubular BC into spherical ones
